Results taken from ChEMBL document CHEMBL3102724, “Isolation of antiplasmodial anthraquinones from Kniphofia ensifolia, and synthesis and structure-activity relationships of related compounds” (Bioorg Med Chem, 2014).

Legend:
Plasmodium falciparum = experiment: Antiplasmodial activity against chloroquine-resistant ring stage Plasmodium falciparum Dd2 after 72 hrs by SYBR Green 1-based fluorescence assay; format: functional, organism-based; details: Dd2, 72 h
A2780 = experiment: Cytotoxicity against human A2780 cells; format: cell-based

O=C(/C=C/c1ccc2c(c1)OCO2)OCc1cc(O)c2c(c1)C(=O)c1cccc(O)c1C2=O
IC50 (Plasmodium falciparum): 1.9 µM

Cc1cc(O)c2c(c1)C(=O)c1ccc(C3(O)c4cccc(O)c4C(=O)c4c(O)cc(C)cc43)c(O)c1C2=O (configuration not stated)
IC50 (Plasmodium falciparum): 0.4 µM | IC50 (A2780): 6 µM

O=C(OCc1cc(O)c2c(c1)C(=O)c1cccc(O)c1C2=O)c1ccc(O)cc1
IC50 (Plasmodium falciparum): 26 µM | IC50 (A2780): > 60 µM

COc1cccc(/C=C/C(=O)OCc2cc(O)c3c(c2)C(=O)c2cccc(O)c2C3=O)c1OC
IC50 (Plasmodium falciparum): 8 µM

CC(=O)Oc1ccc(/C=C/C(=O)OCc2cc(O)c3c(c2)C(=O)c2cccc(O)c2C3=O)cc1
IC50 (Plasmodium falciparum): 12 µM

CC(=O)Oc1ccc(C(=O)OCc2cc(O)c3c(c2)C(=O)c2cccc(O)c2C3=O)cc1
IC50 (Plasmodium falciparum): 30 µM

COc1ccc(C(=O)OCc2cc(O)c3c(c2)C(=O)c2cccc(O)c2C3=O)cc1OC
IC50 (Plasmodium falciparum): 14 µM

COc1ccc(/C=C/C(=O)OCc2cc(O)c3c(c2)C(=O)c2cccc(O)c2C3=O)c(OC)c1
IC50 (Plasmodium falciparum): 6 µM

Cc1cc(O)c2c(c1)C(=O)c1cccc(O)c1C2=O [CHRYSOPHANOL]
IC50 (Plasmodium falciparum): 58 µM | IC50 (A2780): > 60 µM

Cc1cc(O)c2c(c1)C(=O)c1ccc(-c3c(C)cc(O)c4c3C(=O)c3cccc(O)c3C4=O)c(O)c1C2=O
IC50 (Plasmodium falciparum): 10 µM | IC50 (A2780): > 60 µM

COc1cc(/C=C/C(=O)OCc2cc(O)c3c(c2)C(=O)c2cccc(O)c2C3=O)cc(OC)c1OC
IC50 (Plasmodium falciparum): 2.7 µM

O=C(CCc1ccccc1)OCc1cc(O)c2c(c1)C(=O)c1cccc(O)c1C2=O
IC50 (Plasmodium falciparum): 36 µM

COc1ccc(OC)c(/C=C/C(=O)OCc2cc(O)c3c(c2)C(=O)c2cccc(O)c2C3=O)c1
IC50 (Plasmodium falciparum): 9 µM

COc1cc(/C=C/C(=O)OCc2cc(O)c3c(c2)C(=O)c2cccc(O)c2C3=O)cc(OC)c1
IC50 (Plasmodium falciparum): 2.5 µM

Cc1cc(O)cc2c1C(=O)c1cc(-c3c(C)cc4c(c3O)C(=O)c3c(O)cccc3C4=O)cc(O)c1C2=O
IC50 (Plasmodium falciparum): 10 µM | IC50 (A2780): > 60 µM

O=C(OCc1cc(O)c2c(c1)C(=O)c1cccc(O)c1C2=O)c1ccccc1
IC50 (Plasmodium falciparum): 31 µM

C[C@@H]1CC[C@H]2[C@@H](C)C(=O)O[C@@H]3O[C@@]4(C)CC[C@@H]1[C@]32OO4 [ARTEMISININ]
IC50 (Plasmodium falciparum): 0.007 µM

O=C(/C=C/c1ccccc1)OCc1cc(O)c2c(c1)C(=O)c1cccc(O)c1C2=O
IC50 (Plasmodium falciparum): 18 µM

COc1cc(C(=O)OCc2cc(O)c3c(c2)C(=O)c2cccc(O)c2C3=O)cc(OC)c1OC
IC50 (Plasmodium falciparum): 16 µM

COc1cc(O)c(-c2c(C)cc(O)c3c2C(=O)c2cccc(O)c2C3=O)c(O)c1C(C)=O [KNIPHOLONE]
IC50 (Plasmodium falciparum): 1.1 µM | IC50 (A2780): 8 µM

O=C(/C=C/c1ccc(O)cc1)OCc1cc(O)c2c(c1)C(=O)c1cccc(O)c1C2=O
IC50 (Plasmodium falciparum): 9 µM | IC50 (A2780): > 60 µM

COc1ccc(/C=C/C(=O)OCc2cc(O)c3c(c2)C(=O)c2cccc(O)c2C3=O)cc1OC
IC50 (Plasmodium falciparum): 1.3 µM

CC(=O)OCc1cc(O)c2c(c1)C(=O)c1cccc(O)c1C2=O
IC50 (Plasmodium falciparum): 42 µM

O=C1c2cccc(O)c2C(=O)c2c(O)cc(CO)cc21 [ALOE-EMODIN]
IC50 (Plasmodium falciparum): 55 µM | IC50 (A2780): 26 µM

COc1ccc(/C=C/C(=O)OCc2cc(O)c3c(c2)C(=O)c2cccc(O)c2C3=O)cc1
IC50 (Plasmodium falciparum): 5 µM

COc1ccc(C(=O)OCc2cc(O)c3c(c2)C(=O)c2cccc(O)c2C3=O)cc1
IC50 (Plasmodium falciparum): 22 µM

Cc1cc(O)c2c(c1)C(O)(c1ccc3c(c1O)C(=O)c1c(O)cc(C)c(O)c1C3=O)c1cccc(O)c1C2=O (configuration not stated)
IC50 (Plasmodium falciparum): 0.2 µM | IC50 (A2780): 4 µM

C/C=C/C(=O)OCc1cc(O)c2c(c1)C(=O)c1cccc(O)c1C2=O
IC50 (Plasmodium falciparum): 45 µM
